Source: patent publication US6127349A, “Phospholipid drug derivatives” (Amur Research Corporation, priority 1998, dated 2000)

Key:
[1] = oral; cited from earlier work
[2] = system: cutaneous hypersensitivity immune response; assay: DNCB-induced cutaneous contact hypersensitivity (ear swelling); type: in vivo, mice (Balb/c); conditions: for cutaneous hypersensitivity immune response: 100 μg/day/mouse s.c., twelve days, ears rechallenged with 1% DNCB; for cutaneous hypersensitivity immune response / suppression of the response by dexamethasone: days 7-12; for suppression of the response by dexamethasone: steroid together with dexamethasone
Protocol: The effects of DHEA-PC on cutaneous contact hypersensitivity was studied. In this study, mice (Balb/c) were immunologically challenged with DNCB (2 % in ethanol) applied to a 2 cm area on the back. The steroid was injected subcutaneously (100 μg/day/mouse) throughout the twelve-day study period. Ears were rechallenged with DNCB (1% in ethanol) on days 7-12 and swelling was measured daily in order to evaluate the effect on the immune system.

[3] = Partition of tritiated DHEA-phosphocholine reaction product between aqueous phase and benzene (scintillation counting); type: physicochemical
Protocol: A dehydroepiandrosterone(DHEA)-phosphocholine derivative was synthesized as follows: 1 mg of phosphocholine (calcium salt; Sigma Chemical, St. Louis, Mo.) was dissolved in 0.5 ml of formamide (Cat # S-7503; Lot # 55HO257; Sigma Chemical) and 0.5 ml of pyridine (Cat # P-4036; Lot # 55H1489; Sigma Chemical). 0.025 mCi of (1,2,6,7 ^3 H(n)-Dehydroepiandrosterone (Cat # NET814; Lot # 3146097; 89.2 Ci/mmol; Dupont, NEN Products, Boston, Mass.) in 0.025 ml of ethanol was added. The reaction was catalyzed by the addition (as the dry solid) of 5 mg of dicyclohexylcarbodiimide (Cat # D-3129; Lot # 34hO647; Sigma Chemical). The reaction mixture was incubated overnight at room temperature. In the morning, 9 ml of water was added and the mixture extracted 3 times with 10 ml portions of benzene. The benzene extracts were combined and aliquots of both phases were counted in a scintillation counter. The results are set forth below:
The aqueous layer was re-extracted with benzene. The second benzene extraction yielded 272 cpm (0.01 M1) as a confirmation.

acidic sphingomylenase = assay: Hydrolysis of DHEA-PC by acidic sphingomyelinase; type: biochemical
Protocol: (§1) DHEA-phosphocholine (DHEA-PC) was synthesized by sequential reaction of DHEA, choline, and water with phosphorous oxychloride. The synthetic product had the same HPLC retention time and the same mass-spectrum as did the endogenous, actual compound. […] When human serum extracts were analyzed, mass fragments were detected at the same retention time as synthetic material.

neutral sphingomylenase = assay: Hydrolysis of DHEA-PC by neutral sphingomyelinase; type: biochemical
Protocol: as §1

[4] = literature; cited from earlier work
[5] = cited from earlier work
[6] = oral administration, cited from earlier work
[7] = system: enzyme on lymphocyte cell membrane that cleaves phosphocholine from other compounds; assay: Stimulation of lymphocyte membrane enzyme that cleaves phosphocholine; type: biochemical; conditions: data not shown

Compound: C[C@]12CC[C@H](O)CC1=CC[C@@H]1[C@@H]2CC[C@]2(C)C(=O)CC[C@@H]12 [DHEA, dehydroepiandrosterone]
- activity when administered orally [1]: only limited activity
- cutaneous hypersensitivity immune response [2]: similar, high level response
- suppression of the response by dexamethasone [2]: not suppressed by dexamethasone
- extraction of free starting material into benzene ([3]; water/benzene, expected with this protocol): extracted quantitatively into benzene

Compound: C[C@]12CC[C@H](OP(=O)([O-])OCC[N+](C)(C)C)CC1=CC[C@@H]1[C@@H]2CC[C@]2(C)C(=O)CC[C@@H]12 [DHEA-PC, DHEA-3-PHOSPHOCHOLINE]
- cutaneous hypersensitivity immune response [2]: enhanced the cutaneous hypersensitivity immune response similar to native steroids
- dinitrochlorobenzene-induced sensitization ([2]; administered to mice): potentiated dinitrochlorobenzene-induced sensitization
- suppression of the response by dexamethasone [2]: not suppressed by dexamethasone
- hydrolysis by acidic sphingomylenase (acidic sphingomylenase): not by acidic sphingomylenase
- hydrolysis by neutral sphingomylenase (neutral sphingomylenase): hydrolyzed by neutral sphingomylenase
- second benzene extraction radioactivity ([3]; 0.01 M1 aliquot, re-extraction of the aqueous layer with benzene): 272 cpm
- Aqueous Phase radioactivity ([3]; 0.01 ml aliquot, after 3 benzene extractions): 10,729 cpm
- Benzene Phase radioactivity ([3]; 0.01 ml aliquot, combined benzene extracts): 1,121 cpm
- phase in which the reaction product is found ([3]; water/benzene): remains in the aqueous phase

Compound: C[C@]12CC[C@H](OS(=O)(=O)O)CC1=CC[C@@H]1[C@@H]2CC[C@]2(C)C(=O)CC[C@@H]12 [DHEA-sulfate]
- cutaneous hypersensitivity immune response [2]: similar, high level response
- suppression of the response by dexamethasone [2]: not suppressed by dexamethasone

Compound: O=C1N(Cc2ccc(CO)cc2)[C@H](Cc2ccccc2)[C@H](O)[C@@H](O)[C@@H](Cc2ccccc2)N1Cc1ccc(CO)cc1 [DMP-323]
- aqueous solubility [4]: low aqueous solubility
- bioavailability upon administration to patients [5]: variability in the compounds bioavailability
- efficacy ([5]; patients): inconsistent efficacy

Compound: C[C@@H]1C[C@H]2[C@@H]3CCC4=CC(=O)C=C[C@]4(C)[C@@]3(F)[C@@H](O)C[C@]2(C)[C@@]1(O)C(=O)CO [dexamethasone]
- immune response with dexamethasone administered by itself ([2]; versus control): suppressed the immune response below the control

Compound: C[C@]12CC[C@@H]3c4ccc(O)cc4CC[C@H]3[C@@H]1CC[C@@H]2O [estradiol]
- activity when administered orally [1]: only limited activity

Compound: C[C@]12CC[C@@H](O)C[C@H]1CC[C@@H]1[C@@H]2CC[C@]2(C)C(=O)CC[C@@H]12 [etiocholanolone]
- activity when administered orally [1]: only limited activity
- inactivated on each pass through the liver ([6]; free compound): about 99%
- biologically available fraction of the administered drug [6]: only a fraction of a percent

Compound: C[C@]12CC[C@H]3[C@@H](CCC4=CC(=O)CC[C@@]43C)[C@@H]1CC[C@@H]2O [testosterone]
- activity when administered orally [1]: only limited activity

Compound: TGF-α: stimulates lymphocyte membrane enzyme that cleaves phosphocholine
- stimulation of enzyme activity [7]: ten-fold
